From the NIST ThermoML archive (doi:10.1016/j.fluid.2012.05.006)
± gives the expanded uncertainty stated by the source.

Test: activity coefficient (dimensionless); of the first substance listed, at infinite dilution; xn = mol fraction of the nth substance listed
Settings: Liquid, Chromatography, x1 = 0

Row | SMILES | activity coefficient (303.15 K) | activity coefficient (313.15 K) | activity coefficient (323.15 K) | activity coefficient (333.15 K) | activity coefficient (343.15 K) | activity coefficient (353.15 K) | activity coefficient (363.15 K) | activity coefficient (303.15 K, 101 kPa) | activity coefficient (313.15 K, 101 kPa) | activity coefficient (323.15 K, 101 kPa) | activity coefficient (333.15 K, 101 kPa) | activity coefficient (343.15 K, 101 kPa) | activity coefficient (353.15 K, 101 kPa) | activity coefficient (363.15 K, 101 kPa)
1 | Cc1ccccc1C [1,2-dimethylbenzene] + CCCCCCCCn1cc[n+](C)c1.O=[N+]([O-])[O-] | 1.75 ± 0.1 | 1.77 ± 0.1 | 1.79 ± 0.11 | 1.8 ± 0.11 | 1.82 ± 0.11 | 1.84 ± 0.11 | 1.85 ± 0.11 |  |  |  |  |  |  | 
2 | Cc1cccc(C)c1 [1,3-dimethylbenzene] + CCCCCCCCn1cc[n+](C)c1.O=[N+]([O-])[O-] | 2.02 ± 0.11 | 2.03 ± 0.11 | 2.05 ± 0.11 | 2.06 ± 0.11 | 2.07 ± 0.11 | 2.08 ± 0.11 | 2.09 ± 0.11 |  |  |  |  |  |  | 
3 | Cc1ccc(C)cc1 [1,4-dimethylbenzene] + CCCCCCCCn1cc[n+](C)c1.O=[N+]([O-])[O-] | 1.98 ± 0.11 | 1.99 ± 0.11 | 2 ± 0.11 | 2.01 ± 0.11 | 2.01 ± 0.11 | 2.02 ± 0.11 | 2.03 ± 0.11 |  |  |  |  |  |  | 
4 | CC(C)CC(C)(C)C [2,2,4-trimethylpentane] + CCCCCCCCn1cc[n+](C)c1.O=[N+]([O-])[O-] | 18.5 ± 0.66 | 16.8 ± 0.6 | 15.4 ± 0.55 | 14.1 ± 0.51 | 13.3 ± 0.48 | 12.3 ± 0.44 | 11.4 ± 0.41 |  |  |  |  |  |  | 
5 | CC(C)=O [acetone] + CCCCCCCCn1cc[n+](C)c1.O=[N+]([O-])[O-] | 0.84 ± 0.09 | 0.83 ± 0.09 | 0.81 ± 0.09 | 0.79 ± 0.09 | 0.77 ± 0.09 | 0.76 ± 0.09 | 0.74 ± 0.09 |  |  |  |  |  |  | 
6 | CC#N [acetonitrile] + CCCCCCCCn1cc[n+](C)c1.O=[N+]([O-])[O-] | 0.6 ± 0.09 | 0.59 ± 0.09 | 0.58 ± 0.09 | 0.57 ± 0.09 | 0.56 ± 0.09 | 0.55 ± 0.09 | 0.54 ± 0.09 |  |  |  |  |  |  | 
7 | c1ccccc1 [benzene] + CCCCCCCCn1cc[n+](C)c1.O=[N+]([O-])[O-] | 0.94 ± 0.09 | 0.96 ± 0.09 | 0.97 ± 0.09 | 0.98 ± 0.09 | 0.99 ± 0.09 | 1 ± 0.09 | 1.01 ± 0.09 |  |  |  |  |  |  | 
8 | C1CCCCC1 [cyclohexane] + CCCCCCCCn1cc[n+](C)c1.O=[N+]([O-])[O-] | 6.52 ± 0.23 | 6.27 ± 0.22 | 5.89 ± 0.21 | 5.58 ± 0.2 | 5.27 ± 0.19 | 5.09 ± 0.19 | 4.93 ± 0.18 |  |  |  |  |  |  | 
9 | ClCCl [dichloromethane] + CCCCCCCCn1cc[n+](C)c1.O=[N+]([O-])[O-] | 0.32 ± 0.09 | 0.33 ± 0.09 | 0.34 ± 0.09 | 0.36 ± 0.09 | 0.37 ± 0.09 | 0.38 ± 0.09 | 0.39 ± 0.09 |  |  |  |  |  |  | 
10 | CCO [ethanol] + CCCCCCCCn1cc[n+](C)c1.O=[N+]([O-])[O-] | 0.38 ± 0.09 | 0.37 ± 0.09 | 0.35 ± 0.09 | 0.34 ± 0.09 | 0.33 ± 0.09 | 0.31 ± 0.09 | 0.3 ± 0.09 |  |  |  |  |  |  | 
11 | ClC(Cl)(Cl)Cl [tetrachloromethane] + CCCCCCCCn1cc[n+](C)c1.O=[N+]([O-])[O-] | 1.16 ± 0.09 | 1.2 ± 0.09 | 1.24 ± 0.09 | 1.27 ± 0.1 | 1.3 ± 0.1 | 1.35 ± 0.1 | 1.39 ± 0.1 |  |  |  |  |  |  | 
12 | Cc1ccccc1 [toluene] + CCCCCCCCn1cc[n+](C)c1.O=[N+]([O-])[O-] | 1.41 ± 0.1 | 1.41 ± 0.1 | 1.42 ± 0.1 | 1.43 ± 0.1 | 1.44 ± 0.1 | 1.45 ± 0.1 | 1.46 ± 0.1 |  |  |  |  |  |  | 

The remaining lines, values ahead:

Row | activity coefficient (303.15 K) | activity coefficient (313.15 K) | activity coefficient (323.15 K) | activity coefficient (333.15 K) | activity coefficient (343.15 K) | activity coefficient (353.15 K) | activity coefficient (363.15 K) | activity coefficient (303.15 K, 101 kPa) | activity coefficient (313.15 K, 101 kPa) | activity coefficient (323.15 K, 101 kPa) | activity coefficient (333.15 K, 101 kPa) | activity coefficient (343.15 K, 101 kPa) | activity coefficient (353.15 K, 101 kPa) | activity coefficient (363.15 K, 101 kPa) | SMILES
13 | 1.65 ± 0.1 | 1.64 ± 0.1 | 1.63 ± 0.1 | 1.63 ± 0.1 | 1.62 ± 0.1 | 1.61 ± 0.1 | 1.6 ± 0.1 |  |  |  |  |  |  |  | CCOC(C)=O [ethyl acetate] + CCCCCCCCn1cc[n+](C)c1.O=[N+]([O-])[O-]
14 |  |  |  |  |  |  |  | 2.05 ± 0.11 | 2.06 ± 0.11 | 2.06 ± 0.11 | 2.07 ± 0.11 | 2.07 ± 0.11 | 2.08 ± 0.11 | 2.09 ± 0.11 | CCc1ccccc1 [ethylbenzene] + CCCCCCCCn1cc[n+](C)c1.O=[N+]([O-])[O-]
15 | 15.4 ± 0.55 | 14.3 ± 0.51 | 13.3 ± 0.48 | 12.3 ± 0.44 | 11.8 ± 0.42 | 11.2 ± 0.4 | 10.4 ± 0.37 |  |  |  |  |  |  |  | CCCCCCC [heptane] + CCCCCCCCn1cc[n+](C)c1.O=[N+]([O-])[O-]
16 | 12.1 ± 0.43 | 11.2 ± 0.4 | 10.5 ± 0.37 | 9.74 ± 0.35 | 9.05 ± 0.32 | 8.5 ± 0.3 | 8.16 ± 0.29 |  |  |  |  |  |  |  | CCCCCC [hexane] + CCCCCCCCn1cc[n+](C)c1.O=[N+]([O-])[O-]
17 | 0.26 ± 0.09 | 0.26 ± 0.09 | 0.25 ± 0.09 | 0.24 ± 0.09 | 0.23 ± 0.09 | 0.23 ± 0.09 | 0.22 ± 0.09 |  |  |  |  |  |  |  | CO [methanol] + CCCCCCCCn1cc[n+](C)c1.O=[N+]([O-])[O-]
18 | 7.91 ± 0.28 | 7.7 ± 0.27 | 7.37 ± 0.26 | 7.11 ± 0.25 | 6.81 ± 0.24 | 6.62 ± 0.23 | 6.41 ± 0.23 |  |  |  |  |  |  |  | CC1CCCCC1 [methylcyclohexane] + CCCCCCCCn1cc[n+](C)c1.O=[N+]([O-])[O-]
19 | 23.1 ± 0.83 | 21.8 ± 0.78 | 20.9 ± 0.75 | 20.1 ± 0.72 | 19.6 ± 0.7 | 18.6 ± 0.67 | 18.2 ± 0.65 |  |  |  |  |  |  |  | CCCCCCCCC [nonane] + CCCCCCCCn1cc[n+](C)c1.O=[N+]([O-])[O-]
20 | 17.9 ± 0.64 | 17 ± 0.61 | 16.2 ± 0.58 | 15.7 ± 0.56 | 15.2 ± 0.54 | 14.8 ± 0.53 | 14.1 ± 0.5 |  |  |  |  |  |  |  | CCCCCCCC [octane] + CCCCCCCCn1cc[n+](C)c1.O=[N+]([O-])[O-]
21 | 8.5 ± 0.3 | 7.8 ± 0.28 | 7.45 ± 0.26 | 6.94 ± 0.25 | 6.46 ± 0.23 | 6.19 ± 0.22 | 5.77 ± 0.21 |  |  |  |  |  |  |  | CCCCC [pentane] + CCCCCCCCn1cc[n+](C)c1.O=[N+]([O-])[O-]
22 |  | 0.41 ± 0.09 | 0.4 ± 0.09 | 0.38 ± 0.09 | 0.37 ± 0.09 | 0.36 ± 0.09 | 0.35 ± 0.09 |  |  |  |  |  |  |  | CCCO [propan-1-ol] + CCCCCCCCn1cc[n+](C)c1.O=[N+]([O-])[O-]
23 | 0.44 ± 0.09 | 0.43 ± 0.09 | 0.43 ± 0.09 | 0.42 ± 0.09 | 0.41 ± 0.09 | 0.41 ± 0.09 | 0.4 ± 0.09 |  |  |  |  |  |  |  | CC(C)O [propan-2-ol] + CCCCCCCCn1cc[n+](C)c1.O=[N+]([O-])[O-]
24 | 1.03 ± 0.09 | 1.02 ± 0.09 | 1.01 ± 0.09 | 1 ± 0.09 | 0.99 ± 0.09 | 0.98 ± 0.09 | 0.97 ± 0.09 |  |  |  |  |  |  |  | C1CCOC1 [tetrahydrofuran] + CCCCCCCCn1cc[n+](C)c1.O=[N+]([O-])[O-]
25 | 0.17 | 0.18 | 0.19 ± 0.09 | 0.2 ± 0.09 | 0.21 ± 0.09 | 0.22 ± 0.09 | 0.23 ± 0.09 |  |  |  |  |  |  |  | ClC(Cl)Cl [trichloromethane] + CCCCCCCCn1cc[n+](C)c1.O=[N+]([O-])[O-]
